The values below are quoted from earlier work in US20250144059A1, “GUANIDINOACETIC ACID, ITS DERIVATES, COMPOSITIONS AND METHODS OF USE THEREOF” (priority 2023, published 2025).

The conditions of this data set: Merck Index 15th Edition 2013, item #4530.

Regarding `N=C(N)NCC(=O)O` [Number G10, guanidinoacetic acid], the solubility in water result is “fairly soluble in water”.
